Like-named read-outs stand apart in the source and are kept apart here.
What was measured:
Experiment in all cases: qHTS cell viability (CellTiter-Glo, 72 h; primary and follow-up small molecule screen)
Assay type in all cases: cell-based, human
MCC26 cells (VN-MCC) = system: MCC26 cells (VN-MCC)
MKL-1 cells (VP-MCC) = system: MKL-1 cells (VP-MCC)
MCC13 cells (VN-MCC) = system: MCC13 cells (VN-MCC)
MKL-2 cells (VP-MCC) = system: MKL-2 cells (VP-MCC)
UISO cells (VN-MCC) = system: UISO cells (VN-MCC)
WAGA cells (VP-MCC) = system: WAGA cells (VP-MCC)
[1] = follow-up screen, MCC26, replicate 1
[2] = follow-up screen, MCC26, replicate 2
[3] = follow-up screen, MCC26, replicate 3
[4] = follow-up screen, MKL-1, replicate 1
[5] = follow-up screen, MKL-1, replicate 2
[6] = follow-up screen, MKL-1, replicate 3
[7] = follow-up screen, MCC13, replicate 1
[8] = follow-up screen, MCC13, replicate 2
[9] = follow-up screen, MCC13, replicate 3
[10] = follow-up screen, MKL-2, replicate 1
[11] = follow-up screen, MKL-2, replicate 2
[12] = follow-up screen, MKL-2, replicate 3
[13] = follow-up screen, UISO, replicate 1
[14] = follow-up screen, UISO, replicate 2
[15] = follow-up screen, UISO, replicate 3
[16] = follow-up screen, WAGA, replicate 1
[17] = follow-up screen, WAGA, replicate 2
[18] = follow-up screen, WAGA, replicate 3

| SMILES | Area under the dose-response curve (AUC) MCC26 Replicate 1 (MCC26 cells (VN-MCC); [1]) | Area under the dose-response curve (AUC) MCC26 Replicate 2 (MCC26 cells (VN-MCC); [2]) | Area under the dose-response curve (AUC) MCC26 Replicate 3 (MCC26 cells (VN-MCC); [3]) | Area under the dose-response curve (AUC) MKL-1 Replicate 1 (MKL-1 cells (VP-MCC); [4]) | Area under the dose-response curve (AUC) MKL-1 Replicate 2 (MKL-1 cells (VP-MCC); [5]) | Area under the dose-response curve (AUC) MKL-1 Replicate 3 (MKL-1 cells (VP-MCC); [6]) | Area under the dose-response curve (AUC) MCC13 Replicate 1 (MCC13 cells (VN-MCC); [7]) | Area under the dose-response curve (AUC) MCC13 Replicate 2 (MCC13 cells (VN-MCC); [8]) | Area under the dose-response curve (AUC) MCC13 Replicate 3 (MCC13 cells (VN-MCC); [9]) | Area under the dose-response curve (AUC) MKL-2 Replicate 1 (MKL-2 cells (VP-MCC); [10]) | Area under the dose-response curve (AUC) MKL-2 Replicate 2 (MKL-2 cells (VP-MCC); [11]) | Area under the dose-response curve (AUC) MKL-2 Replicate 3 (MKL-2 cells (VP-MCC); [12]) | Area under the dose-response curve (AUC) UISO Replicate 1 (UISO cells (VN-MCC); [13]) | Area under the dose-response curve (AUC) UISO Replicate 2 (UISO cells (VN-MCC); [14]) | Area under the dose-response curve (AUC) UISO Replicate 3 (UISO cells (VN-MCC); [15]) | Area under the dose-response curve (AUC) WAGA Replicate 1 (WAGA cells (VP-MCC); [16]) | Area under the dose-response curve (AUC) WAGA Replicate 2 (WAGA cells (VP-MCC); [17]) | Area under the dose-response curve (AUC) WAGA Replicate 3 (WAGA cells (VP-MCC); [18]) | Area under the dose-response curve (AUC) MCC26 Replicate 1 (MCC26 cells (VN-MCC)) | Area under the dose-response curve (AUC) MCC26 Replicate 2 (MCC26 cells (VN-MCC)) | also measured |
| --- | --- | --- | --- | --- | --- | --- | --- | --- | --- | --- | --- | --- | --- | --- | --- | --- | --- | --- | --- | --- | --- |
| Nc1ccc(C(=O)Nc2ccccc2N)cc1 [Dianiline] | 384.0 | 438.4 | 461.6 | 338.4 | 393.7 | 398.6 | 470.9 | 476.2 | 459.3 | 329.9 | 373.4 | 408.4 | 377.0 | 432.3 | 415.8 | 404.2 | 318.5 | 364.2 |  |  |  |
| C[C@H]1O[C@@H](O[C@H]2[C@@H](O)C[C@H](O[C@H]3[C@@H](O)C[C@H](O[C@H]4CC[C@@]5(C)[C@H](CC[C@@H]6[C@@H]5CC[C@]5(C)[C@@H](C7=CC(=O)OC7)CC[C@]65O)C4)O[C@@H]3C)O[C@@H]2C)C[C@H](O)[C@@H]1O [Digitoxin] |  |  |  |  |  |  |  |  |  |  |  |  |  |  |  |  |  |  | 279.4 | 294.5 | Area under the dose-response curve (AUC) MCC26 Replicate 3 (MCC26 cells (VN-MCC)): 239.6; Area under the dose-response curve (AUC) MKL-1 Replicate 1 (MKL-1 cells (VP-MCC)): 269.2; Area under the dose-response curve (AUC) MKL-1 Replicate 2 (MKL-1 cells (VP-MCC)): 287.7; Area under the dose-response curve (AUC) MKL-1 Replicate 3 (MKL-1 cells (VP-MCC)): 299.6; Area under the dose-response curve (AUC) MCC13 Replicate 1 (MCC13 cells (VN-MCC)): 232.3; Area under the dose-response curve (AUC) MCC13 Replicate 2 (MCC13 cells (VN-MCC)): 249.2; Area under the dose-response curve (AUC) MCC13 Replicate 3 (MCC13 cells (VN-MCC)): 235.6; Area under the dose-response curve (AUC) MKL-2 Replicate 1 (MKL-2 cells (VP-MCC)): 287.6; Area under the dose-response curve (AUC) MKL-2 Replicate 2 (MKL-2 cells (VP-MCC)): 297.9; Area under the dose-response curve (AUC) MKL-2 Replicate 3 (MKL-2 cells (VP-MCC)): 317.5; Area under the dose-response curve (AUC) UISO Replicate 1 (UISO cells (VN-MCC)): 201.4; Area under the dose-response curve (AUC) UISO Replicate 2 (UISO cells (VN-MCC)): 226.6; Area under the dose-response curve (AUC) UISO Replicate 3 (UISO cells (VN-MCC)): 210.4; Area under the dose-response curve (AUC) WAGA Replicate 1 (WAGA cells (VP-MCC)): 276.0; Area under the dose-response curve (AUC) WAGA Replicate 2 (WAGA cells (VP-MCC)): 299.5; Area under the dose-response curve (AUC) WAGA Replicate 3 (WAGA cells (VP-MCC)): 286.7 |
| [O-][n+]1ccccc1SSc1cccc[n+]1[O-] [Dipyrithione] | 305.7 | 302.8 | 280.4 | 254.8 | 246.8 | 245.5 | 333.5 | 320.8 | 288.3 | 287.6 | 277.7 | 248.6 | 241.8 | 283.0 | 225.1 | 319.9 | 346.1 | 356.9 |  |  |  |
| CCN(CC)C(=S)SSC(=S)N(CC)CC [Disulfiram] | 398.0 | 401.3 | 322.7 | 287.1 | 274.6 | 256.7 | 436.7 | 415.1 | 342.5 | 243.8 | 235.0 | 298.1 | 247.9 | 258.4 | 254.5 | 389.6 | 433.6 | 454.9 |  |  |  |
| CS[C@H]1SC[C@H]2C(=O)N(C)[C@@H](C(C)C)C(=O)OC[C@@H](NC(=O)c3cnc4ccccc4n3)C(=O)N[C@@H](C)C(=O)N(C)[C@@H]1C(=O)N(C)[C@@H](C(C)C)C(=O)OC[C@@H](NC(=O)c1cnc3ccccc3n1)C(=O)N[C@@H](C)C(=O)N2C [Echinomycin] |  |  |  |  |  |  |  |  |  |  |  |  |  |  |  |  |  |  | 267.2 | 264.2 | Area under the dose-response curve (AUC) MCC26 Replicate 3 (MCC26 cells (VN-MCC)): 215.9; Area under the dose-response curve (AUC) MKL-1 Replicate 1 (MKL-1 cells (VP-MCC)): 235.9; Area under the dose-response curve (AUC) MKL-1 Replicate 2 (MKL-1 cells (VP-MCC)): 188.8; Area under the dose-response curve (AUC) MKL-1 Replicate 3 (MKL-1 cells (VP-MCC)): 250.5; Area under the dose-response curve (AUC) MCC13 Replicate 1 (MCC13 cells (VN-MCC)): 310.2; Area under the dose-response curve (AUC) MCC13 Replicate 2 (MCC13 cells (VN-MCC)): 265.0; Area under the dose-response curve (AUC) MCC13 Replicate 3 (MCC13 cells (VN-MCC)): 244.8; Area under the dose-response curve (AUC) MKL-2 Replicate 1 (MKL-2 cells (VP-MCC)): 166.1; Area under the dose-response curve (AUC) MKL-2 Replicate 2 (MKL-2 cells (VP-MCC)): 154.0; Area under the dose-response curve (AUC) MKL-2 Replicate 3 (MKL-2 cells (VP-MCC)): 225.2; Area under the dose-response curve (AUC) UISO Replicate 1 (UISO cells (VN-MCC)): 140.9; Area under the dose-response curve (AUC) UISO Replicate 2 (UISO cells (VN-MCC)): 135.8; Area under the dose-response curve (AUC) UISO Replicate 3 (UISO cells (VN-MCC)): 136.4; Area under the dose-response curve (AUC) WAGA Replicate 1 (WAGA cells (VP-MCC)): 225.7; Area under the dose-response curve (AUC) WAGA Replicate 2 (WAGA cells (VP-MCC)): 172.6; Area under the dose-response curve (AUC) WAGA Replicate 3 (WAGA cells (VP-MCC)): 225.4 |
| CC[C@H]1CN2CCc3cc(OC)c(OC)cc3[C@@H]2C[C@@H]1C[C@H]1NCCc2cc(OC)c(OC)cc21 [Emetine] | 331.2 | 367.3 | 295.0 | 316.9 | 311.7 | 312.3 | 319.8 | 335.5 | 310.8 | 297.3 | 300.1 | 296.5 | 267.1 | 258.2 | 246.0 | 343.0 | 356.1 | 341.6 |  |  |  |
| CC[n+]1c(-c2ccccc2)c2cc(N)ccc2c2ccc(N)cc21 [Ethidium bromide] |  |  |  |  |  |  |  |  |  |  |  |  |  |  |  |  |  |  | 428.7 | 414.7 | Area under the dose-response curve (AUC) MCC26 Replicate 3 (MCC26 cells (VN-MCC)): 412.7; Area under the dose-response curve (AUC) MKL-1 Replicate 1 (MKL-1 cells (VP-MCC)): 280.1; Area under the dose-response curve (AUC) MKL-1 Replicate 2 (MKL-1 cells (VP-MCC)): 244.2; Area under the dose-response curve (AUC) MKL-1 Replicate 3 (MKL-1 cells (VP-MCC)): 288.2; Area under the dose-response curve (AUC) MCC13 Replicate 1 (MCC13 cells (VN-MCC)): 459.3; Area under the dose-response curve (AUC) MCC13 Replicate 2 (MCC13 cells (VN-MCC)): 449.7; Area under the dose-response curve (AUC) MCC13 Replicate 3 (MCC13 cells (VN-MCC)): 444.5; Area under the dose-response curve (AUC) MKL-2 Replicate 1 (MKL-2 cells (VP-MCC)): 300.3; Area under the dose-response curve (AUC) MKL-2 Replicate 2 (MKL-2 cells (VP-MCC)): 311.5; Area under the dose-response curve (AUC) MKL-2 Replicate 3 (MKL-2 cells (VP-MCC)): 284.3; Area under the dose-response curve (AUC) UISO Replicate 1 (UISO cells (VN-MCC)): 333.5; Area under the dose-response curve (AUC) UISO Replicate 2 (UISO cells (VN-MCC)): 324.2; Area under the dose-response curve (AUC) UISO Replicate 3 (UISO cells (VN-MCC)): 301.4; Area under the dose-response curve (AUC) WAGA Replicate 1 (WAGA cells (VP-MCC)): 318.2; Area under the dose-response curve (AUC) WAGA Replicate 2 (WAGA cells (VP-MCC)): 323.3; Area under the dose-response curve (AUC) WAGA Replicate 3 (WAGA cells (VP-MCC)): 317.1 |

— paper PMC11822212, “High-throughput screening identifies Aurora kinase B as a critical therapeutic target for Merkel cell carcinoma” (Nature Communications, 2025)
